pEC50: −log10 of the molar value.
How the values were obtained:
[1] = system: HCMV engineered virus RC256; test: microbe, parasite or virus in culture; type: cell-based, human cytomegalovirus; settings: Human betaherpesvirus 5, Fibroblast, read-out: Antiviral Activity RC256, first value (EC50)
[2] = molecular target: T1, Human leukocyte elastase (HLE) (Homo sapiens, UniProt P08246); test: Human leukocyte elastase assay; type: biochemical
T1 construct: gift of R. Senior, Washington University
T1 sequence (P08246 30-267): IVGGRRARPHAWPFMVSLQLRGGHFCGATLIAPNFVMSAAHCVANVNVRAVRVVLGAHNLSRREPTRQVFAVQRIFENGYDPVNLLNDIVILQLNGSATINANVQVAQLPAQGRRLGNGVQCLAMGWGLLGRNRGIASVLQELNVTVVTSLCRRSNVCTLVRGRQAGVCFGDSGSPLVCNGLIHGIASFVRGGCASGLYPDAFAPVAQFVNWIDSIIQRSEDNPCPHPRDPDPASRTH
Procedure: Human leukocyte elastase (HLE) (gift of R. Senior, Washington University) was dissolved in saline at 1 mg/ml and further diluted 1/20 in assay buffer (0.2 M Tris, pH 8.0) before use. 10 μl of test compound in DMSO (or DMSO alone), 100 μl of assay buffer and 50 μl of enzyme were added to 96 well plates, mixed and pre-incubated for 30 minutes at ambient temperature. Reaction was initiated by addition of 40 μl of 2.5 mM methoxysuccinyl-Ala-Ala-Pro-Val-p-nitroanilide (Sigma; 25 mM in DMSO diluted 1/10 in assay buffer before use). The increase in absorbance at 405 nm was monitored for 10 minutes with a Biotek EL340 plate reader.

[3] = @ 10 (concentration unit not given)
[4] = @ 1 (concentration unit not given)
[5] = @ 100 (concentration unit not given)

Row | Compound | pEC50 [1] | HLE, % @ concentration [2, 3] | HLE, % @ concentration ([2]; @ 6 (concentration unit not given)) | HLE, % @ concentration [2, 4] | HLE, % @ concentration [2, 5]
1 | Cc1c(CNC(=O)OCc2ccccc2)ccc2nc(N[C@@H](Cc3ccccc3)C(=O)N(C)CCc3ccccc3)oc(=O)c12 [Example 9dd, Phenylmethyl[[5-methyl-2-[[2-[methyl(2-phenylethyl)amino]-2-oxo-1S-(phenylmethyl)ethyl]amino]-4-oxo-3,1-benzoxazin-6-yl]methyl]carbamate] | 4.35 | 78% @ 10 | – | – | –
2 | CCN(Cc1ccccc1)C(=O)[C@H](Cc1ccc(OC)cc1)Nc1nc2ccc(CNC(=O)OCc3ccccc3)c(C)c2c(=O)o1 [Example 9p, Phenylmethyl[[2-[[2-[ethyl(phenylmethyl)amino]-1S-[(4-methoxyphenyl)methyl]-2-oxoethyl]amino]-5-methyl-4-oxo-3,1-benzoxazin-6-yl]methyl]carbamate] | < 4.00 | – | 45% @ 6 | – | –
3 | Cc1c(CNC(=O)OC(C)(C)C)ccc2nc(N[C@@H](Cc3ccccc3)C(=O)N(C)CCc3ccccc3)oc(=O)c12 [Example 7v, 1,1-Dimethylethyl[[5-methyl-2-[[2-[methyl(2-phenylethyl)amino]-2-oxo-1S-(phenylmethyl)ethyl]amino]-4-oxo-4H-3,1-benzoxazin-6-yl]methyl]carbamate] | 4.85 | 53% @ 10 | – | – | –
4 | COc1ccc(C[C@H](Nc2nc3ccc(NC(=O)c4ccccn4)c(C)c3c(=O)o2)C(=O)N(C)Cc2ccccc2)cc1 [Example 11p, N-[2-[[1S-[(4-Methoxyphenyl)methyl]-2-[-methyl(phenylmethyl)amino]-2-oxoethyl]amino]-5-methyl-4-oxo-4H-3,1-benzoxazin-6-yl]pyridine-2-carboxamide] | 5.07 | 40% @ 10 | – | – | –
5 | CCN(C(=O)[C@H](Cc1ccccc1)Nc1nc2ccc(CNC(=O)OC(C)(C)C)c(C)c2c(=O)o1)c1ccccc1 [Example 7n] | 4.80 | 16% @ 10 | – | – | –
6 | Cc1c(CNC(=O)Nc2ccccc2)ccc2nc(N[C@@H](Cc3ccccc3)C(=O)N(C)Cc3ccccc3)oc(=O)c12 [Example 12f, N-Methyl-αS-[[5-methyl-4-oxo-6-[[[(phenylamino)carbonyl]amino]methyl]-4H-3,1-benzoxazin-2-yl]amino]-N-(phenylmethyl)benzenepropanamide] | 4.85 | – | – | 55% @ 1 | –
7 | COc1ccc(C[C@H](Nc2nc3ccc(CNC(=O)NCc4ccccc4)c(C)c3c(=O)o2)C(=O)N(C)Cc2ccccc2)cc1 [Example 12j, 4-Methoxy-N-methyl-αS-[[5-methyl-4-oxo-6-[[[[(phenylmethyl)amino]carbonyl]amino]methyl]-4H-3,1-benzoxazin-2-yl]amino]-N-(phenylmethyl)benzenepropanamide] | 4.77 | – | – | 63% @ 1 | –
8 | Cc1ccc(S(=O)(=O)NCc2cc(Br)c3nc(N[C@@H](Cc4ccccc4)C(=O)N(C)Cc4ccccc4)oc(=O)c3c2C)cc1 [Example 13d, αS-[[8-Bromo-5-methyl-6-[[[(4-methylphenyl)sulfonyl]amino]methyl]-4-oxo-4H-3,1-benzoxazin-2-yl]amino]-N-methyl-N-(phenylmethyl)benzenepropanamide] | 5.10 | 87% @ 10 | – | – | –
9 | COc1ccc(C[C@H](Nc2nc3ccc(CNC(=O)OC(C)(C)C)c(C)c3c(=O)o2)C(=O)N(C)c2ccccc2)cc1 [Example 7t, 1,1-Dimethylethyl[[2-[[1S-[(4-methoxyphenyl)methyl]-2-(methylphenylamino)-2-oxoethyl]amino]-5-methyl-4-oxo-4H-3,1-benzoxazin-6-yl]methyl]carbamate] | 4.74 | 20% @ 10 | – | – | –
10 | COC(=O)[C@H](CCS(C)(=O)=O)Nc1nc2ccc(NC(=O)OC(C)(C)C)c(C)c2c(=O)o1 [Example 6u, N-[6-[[(1,1-Dimethylethoxy)carbonyl]amino]-5-methyl-4-oxo-4H-3,1-benzoxazin-2-yl]-L-methionine sulfone, methyl ester] | 4.00 | – | – | – | 29% @ 100
11 | CCN(C(=O)[C@H](Cc1ccc(OC)cc1)Nc1nc2ccc(N(C)C)c(C)c2c(=O)o1)c1ccccc1 [Example 16b, αS-[[6-(Dimethylamino)-5-methyl-4-oxo-4H-3,1-benzoxazin-2-yl]amino]-N-ethyl-4-methoxy-N-phenylbenzenepropanamide] | 4.70 | – | – | 49% @ 1 | –
12 | COc1ccc(C[C@H](Nc2nc3ccc(NC(=O)OC(C)(C)C)c(C)c3c(=O)o2)C(=O)N(C)Cc2ccccc2)cc1 [Example 6dd, 1,1-Dimethylethyl[2-[[1S-[(4-methoxyphenyl)methyl]-2-[methyl(phenylmethyl)amino]-2-oxoethyl]amino]-5-methyl-4-oxo-4H-3,1-benzoxazin-6-yl]carbamate] | 4.74 | 42% @ 10 | – | – | –
13 | Cc1c(CNC(=O)NCc2ccccc2)ccc2nc(N[C@@H](Cc3ccccc3)C(=O)N(C)Cc3ccccc3)oc(=O)c12 [Example 12h, N-Methyl-αS-[[5-methyl-4-oxo-6-[[[[(phenylmethyl)amino]carbonyl]amino]methyl]-4H-3,1-benzoxazin-2-yl]amino]-N-(phenylmethyl)benzenepropanamide] | 4.74 | – | – | 58% @ 1 | –
14 | CCOC(=O)NCc1ccc2nc(N[C@@H](Cc3ccc(OC)cc3)C(=O)N(C)Cc3ccccc3)oc(=O)c2c1C [Example 9g, Ethyl[[2-[[1S-[(4-methoxyphenyl)methyl]-2-[methyl(phenylmethyl)amino]-2-oxoethyl]amino]-5-methyl-4-oxo-4H-3,1-benzoxazin-6-yl]methyl]carbamate] | 4.82 | 27% @ 10 | – | – | –
15 | CCN(Cc1ccccc1)C(=O)[C@H](Cc1ccccc1)Nc1nc2c(Br)cc(CNC(=O)CN3CCOCC3)c(C)c2c(=O)o1 [Example 15g, N-[[8-Bromo-2-[[2-[ethyl(phenylmethyl)amino]-2-oxo-1S-(phenylmethyl)ethyl]amino]-5-methyl-4-oxo-4H-3,1-benzoxazin-6-yl]methyl]morpholine-4-acetamide] | 4.80 | – | – | 22% @ 1 | –
16 | Cc1c(NCc2ccccc2)ccc2nc(N[C@@H](Cc3ccccc3)C(=O)N(C)Cc3ccccc3)oc(=O)c12 [Example 17d, N-Methyl-αS-[[5-methyl-4-oxo-6-[(phenylmethyl)amino]-3,1-benzoxazin-2-yl]amino]-N-(phenylmethyl)benzenepropanamide] | 4.82 | 48% @ 10 | – | – | –
17 | Cc1c(CNC(=O)CN2CCOCC2)cc(Br)c2nc(N[C@@H](Cc3ccccc3)C(=O)N(C)Cc3ccccc3)oc(=O)c12 [Example 15e, N-[[8-Bromo-5-methyl-2-[[2-[methyl(phenylmethyl)amino]-2-oxo-1S-(phenylmethyl)ethyl]amino]-4-oxo-4H-3,1-benzoxazin-6-yl]methyl]morpholine-4-acetamide] | 4.80 | – | – | – | 78% @ 100
18 | COc1ccc(C[C@H](Nc2nc3ccc(NS(=O)(=O)c4ccccc4)c(C)c3c(=O)o2)C(=O)N(C)Cc2ccccc2)cc1 [Example 13c, 4-Methoxy-N-methyl-αS-[[5-methyl-4-oxo-6-[(phenylsulfonyl)amino]-4H-3,1-benzoxazin-2-yl]amino]-N-(phenylmethyl)benzenepropanamide] | 5.00 | 39% @ 10 | – | – | –
19 | COc1ccc(C[C@H](Nc2nc3ccc(CNC(=O)OC(C)(C)C)c(C)c3c(=O)o2)C(=O)N(C)CCc2ccccc2)cc1 [Example 7q, 1,1-Dimethylethyl[[2-[[1S-[(4-methoxyphenyl)methyl]-2-[methyl(2-phenylethyl)amino]-2-oxoethyl]amino]-5-methyl-4-oxo-4H-3,1-benzoxazin-6-yl]methyl]carbamate] | 4.66 | – | – | 39% @ 1 | –
20 | Cc1c(CNC(=O)OCc2ccccc2)ccc2nc(N[C@@H](Cc3ccccc3)C(=O)N(C)Cc3ccccc3)oc(=O)c12 [Example 9r, Phenylmethyl[[5-methyl-2-[[2-[methyl(phenylmethyl)amino]-2-oxo-1S-(phenylmethyl)ethyl]amino]-4-oxo-4H-3,1-benzoxazin-6-yl]methyl]carbamate] | 4.85 | – | – | 47% @ 1 | –
21 | COC(=O)C1(Nc2nc3ccc(NC(=O)OC(C)(C)C)c(C)c3c(=O)o2)CC1 [Example 6x, N-[6-[[(1,1-Dimethylethoxy)carbonyl]amino]-5-methyl-4-oxo-4H-3,1-benzoxazin-2-yl]-1-cyclopropanecarboxylic acid, methyl ester] | < 4.00 | 25% @ 10 | – | – | –
22 | Cc1c(NC(=O)c2ccco2)ccc2nc(N[C@@H](C)c3ccccc3)oc(=O)c12 [Example 11k, 6-[[(2-Furanyl)carbonyl]amino]-5-methyl-2-[[(1S)-phenylethyl]amino]-4H-3,1-benzoxazin-4-one] | 4.19 | – | – | – | 63% @ 100
23 | CCOC(=O)NCc1ccc2nc(N[C@@H](Cc3ccccc3)C(=O)N(C)Cc3ccccc3)oc(=O)c2c1C [Example 9k, Ethyl[[5-methyl-2-[[2-[methyl(phenylmethyl)amino]-2-oxo-1S-(phenylmethyl)ethyl]amino]-4-oxo-4H-3,1-benzoxazin-6-yl]methyl]carbamate] | 4.96 | 29% @ 10 | – | – | –

Reference: US6683077B2, “2-Amino-benzoxazinones for the treatment of viral infections” (G.D. Searle & Co., priority 1996, dated 2004)
